# Data published in patent US12685744B2, “Anti-fungal compositions and methods for using same” (The Research Foundation for The State University of New York, priority 2019, dated 2026).
# Columns and labels:
# [1] = system: C. albicans strain SC5314 (Wild Type); test: Growth of C. albicans with ManSIFG and 0.2M CaCl2, cell count by hemocytometer; type: cell-based, Candida albicans; settings: 0.2M CaCl2 alone
# Experimental: This signaling pathway is considered to regulate synthesis of chitin, an important carbohydrate which is part of the cell wall and septum, which is formed during cell division. C. albicans strain SC5314 (wild type) was cultured from frozen stock in Yeast Nitrogen Base media (YNB) with 2% glucose and grown overnight at 30° C. with shaking at 225 rpm. Cell concentration was determined by hemocytometer. […] […] (62.5 μg/ml) was added to test cultures but not to control cultures. The experiment was done in triplicates. The culture tubes were placed on a nutator inside a 30° C. incubator and grown for 24 hours. Time points were taken at 6, 12, and 24 hours. Cell concentration was monitored by hemocytometer at 6, 12, and 24-hour time points. Statistical analysis was done using two-tailed Student's t-Test.
# [2] = system: C. albicans wild type strain (SC5314); test: Checkerboard synergy assay / MIC analysis, OD600; type: cell-based, Candida albicans
# Experimental: (§1) The C. albicans wild type strain (SC5314) was cultured from frozen stock in Yeast Peptone Dextrose (YPD) and grown overnight at 30° C. with shaking at 225 rpm. Cell concentration was determined by hemocytometer and used to adjust the inoculum to 2×10^3 cells/ml in fresh YPD, which is 2× the desired final concentration. 50 ul of the inoculum was added to each well for a final culture volume of 100 ul. The final cell concentration was 1×10^3 cells/ml. The plate was sealed with plastic film and placed in a BioTek Synergy HT plate reader for 24 hours at 37° C. At each time point, the plate was shaken for 10 seconds prior to each OD600 reading.
# [3] = system: wildtype C. albicans strain SC5314; test: Growth of C. albicans in YNB, cell count by hemocytometer; type: cell-based, Candida albicans
# Experimental: (§2) The wildtype C. albicans strain SC5314 was cultured from frozen stock in Yeast Nitrogen Base (YNB) media with 2% glucose and grown overnight at 30° C. with shaking at 225 rpm as described previously (Chinnici et al., 2019). Cell concentration of the overnight culture was determined by hemocytometer. This was used to inoculate fresh cultures with a final starting concentration of 5×10^5 cells/ml in fresh YNB contain either no treatment (control) or various concentrations (31.25, 62.5, or 125 μg/ml) of the mannose disaccharide inhibitor. The cultures were run in duplicates and incubated at 30° C. on a nutator. Cell concentration was analyzed by counting on hemocytometer at 10, 14, 18, and 24-hour time points. Statistical analysis was done using two-tailed Student's t-Test.
# as §2, with “previously.” for “previously (Chinnici et al., 2019).”, “62.5 μg/ml” for “various concentrations (31.25, 62.5, or 125 μg/ml)”, “D-Mannose.” for “the mannose disaccharide inhibitor.”
# [4] = system: C. albicans strain SC5314 (Wild Type); test: Germ tube / hypha formation of C. albicans induced by 20% FBS, count by hemocytometer; type: cell-based, Candida albicans; settings: 62.5 μg/ml, 37° C., significantly (FIG. 3)
# [5] = system: Trychophyton rubrum (ATCC-MYA-4607); test: MIC testing against toe nail fungus; type: cell-based, Trichophyton rubrum; settings: various concentrations, SDB, 25° C., 6 days (FIG. 10)
# Experimental: Effect […] on other fungal cells. Trichophyton rubrum is the fungal pathogen that causes onychomycosis or toe nail fungus. […] The experiment was performed in triplicates. […] A 50 ul inoculum was added to each well for a final culture volume of 100 ul. […] The plate was cultured for 6 days at 25° C. and then imaged using an iPhone camera.
# [6] = system: Candida parapsilosis (ATCC-22019) wild type strain; test: Antifungal activity against C. parapsilosis; type: cell-based; settings: at very low concentrations (FIG. 12)
# Experimental: as §1, with “ManSIFG MIC analysis for Candida albicans and effects of CaCl2. A checkerboard synergy assay was used to test ManSIFG and CaCl2) each by themselves and in various combinations of each other. Drug concentrations to be tested were prepared 4× concentrated and dispensed into a sterile 96-well culture plate. 25 ul of each ManSIFG dilution was dispensed in each column, such that concentrations increased along the x-axis of the plate. 25 ul of each CaCl2 dilution was dispensed in each row, such that concentrations increased along the y-axis of the plate. The C.” for “The C.”
# Effect of ManSIFG on additional Candida species. Other Candida species were tested. Candida parapsilosis (ATCC-22019) wild type strain was used. Methods are same as described above. […]
# [7] = system: Candida krusei, (ATCC-6258) wild type strain; test: Antifungal activity against C. krusei; type: cell-based; settings: even at very low concentrations (FIG. 13)
# [8] = system: Candida glabrata (ATCC-2001) wild type strain; test: Antifungal activity against C. glabrata; type: cell-based; settings: FIG. 14
# [9] = system: Candida tropicalis (ATCC-750) wild type strain; test: Antifungal activity against C. tropicalis; type: cell-based; settings: FIG. 15
smiles,measurement,setting,value
"[Ca+2].[Cl-].[Cl-] [CaCl2, Calcium chloride]",growth of C. albicans as compared to control cultures,[1]; 12 hours (FIG. 4A),significantly inhibit
same,growth of C. albicans as compared to control cultures,[1]; 24 hours (FIG. 4B),significantly inhibit
same,antifungal effect of CaCl2 by itself,[2]; very high concentrations (FIG. 9),has an antifungal effect
"O=C[C@@H](O)[C@@H](O)[C@H](O)[C@H](O)CO [D-Mannose, reference compound]",growth of C. albicans wild type as compared to control cultures,"[3]; D-Mannose 62.5 μg/ml, 10, 14, 18 and 24-hour time points",not inhibited
"OC[C@H]1O[C@H](SC[C@H]2CNC[C@@H](O)[C@@H]2O)[C@@H](O)[C@@H](O)[C@@H]1O [ManSIFG, (2R,3S,4S,5S,6R)-2-((((3S,4R,5R)-4,5-dihydroxypiperidin-3-yl)methyl)thio)-6-(hydroxymethyl)tetrahydro-2H-pyran-3,4,5-triol]",growth of C. albicans wild type as compared to control cultures,"[3]; 62.5 μg/ml, 10 hours, significantly (FIG. 2)",inhibited
same,"growth of C. albicans, difference between control and inhibitor cultures","[3]; 62.5 μg/ml, later time points (14, 18, 24 hours)",no significant difference
same,formation of germ tubes as compared to control cultures,[4]; 12 hours,inhibited
same,formation of germ tubes as compared to control cultures,[4]; 24 hours,inhibited
same,MIC,"[2]; Candida albicans, SC5314, YPD, 37° C., 24 hours, OD600 (FIG. 7)",31.2 to 62.5 mg/L
same,effect of addition of CaCl2 on antifungal activity of ManSIFG,[2]; ManSIFG 7.81 μg/ml plus 100 mg/ml CaCl2 vs CaCl2 alone (FIG. 8),improves the antifungal activity
same,inhibitory effect against Trychophoton rubrum,[5],no inhibitory effect
same,antifungal activity against Candida parapsilosis,[6],has antifungal activity
same,antifungal activity against Candida krucei,[7],has antifungal activity
same,antifungal activity against Candida glabrata,[8],has antifungal activity
same,antifungal activity against Candida tropicalis,[9],has antifungal activity
